Measurements as given in publication PMC8777717, “Thiolation of Myco-Synthesized Fe3O4-NPs: A Novel Promising Tool for Penicillium expansium Laccase Immobilization to Decolorize Textile Dyes and as an Application for Anticancer Agent” (Journal of Fungi, 2022).

What was measured:
P. expansium laccase [1] = tested on: T1, P. expansium laccase; experiment: spectrophotometric oxidation assay at […] nm, Lineweaver-Burk; type: biochemical, Penicillium expansum; details: free enzyme; 0.2-0.8 mM substrate; 0.1 M sodium acetate pH 5.0, 40 °C
T1 construct: gene EC 1.10.3.2; native enzyme purified from culture filtrate (ABTS-supplemented medium; ammonium sulfate, DEAE-cellulose, Sephadex G-200); single SDS-PAGE band ~60 kDa; free (soluble) enzyme

P. expansium laccase [2] = tested on: T1, P. expansium laccase; experiment: Lineweaver-Burk; type: biochemical, Penicillium expansum; details: free enzyme; 0.2-0.8 mM substrate; 0.1 M sodium acetate pH 5.0, 40 °C
From the text: Lineweaver-Burk on P. expansium laccase

SMILES: CCn1c(=NN=c2sc3cc(S(=O)(=O)O)ccc3n2CC)sc2cc(S(=O)(=O)O)ccc21 [ABTS]
- Km (P. expansium laccase [1]): 4150 µM

SMILES: Oc1ccccc1O [catechol]
- Km (P. expansium laccase [2]): 1310 µM
